Series [1] can be described thus: Phase 1 multiple ascending dose clinical study: pharmacokinetics. The format is in vivo, human. The method, then: (§1) A phase 1 multiple ascending dose (MAD) clinical study of LX2761 in otherwise healthy subjects with type 2 diabetes (T2DM) was conducted, following an earlier, single ascending dose study of the compound's safety and tolerability.
(§2) This study evaluated the safety and tolerability of orally administered LX2761 given qd (i.e., once daily) or bid (i.e., twice daily) for eight days, over a range of ascending multiple dose levels in subjects with T2DM. As secondary objectives, the study evaluated the PD and PK of LX2761. Of the 51 subjects enrolled in the study, 27 (52.9%) were male and 24 (47.1%) were female. Subject ages ranged from 41 to 65 years, with BMIs ranging from 20.1 to 39.8 kg/m^2.
(§3) Subjects taking LX2761 were grouped into five cohorts: Cohort A=LX2761 dosed 0.4 mg qd for 4 days followed by LX2761 dosed 0.6 mg qd for 4 days; Cohort A2=LX2761 dosed 0.2 mg bid for 8 days; Cohort B=LX2761 dosed 0.6 mg qd for 4 days followed by LX2761 dosed 0.8 mg qd for 4 days; Cohort C=LX2761 dosed 0.6 mg qd for 4 days followed by LX2761 dosed 1.0 mg qd for 4 days; Cohort C1=LX2761 dosed 0.4 mg bid for 8 days.

Series [2] has as its system subjects with type 2 diabetes (T2DM). The series is described as follows: Phase 1 multiple ascending dose clinical study: bowel movement frequency and Bristol Stool Form (BSF) Scale. The format is in vivo, human. The method, then:
FIG. 2 provides a table with baseline Bristol Stool Form (BSF) Scale data for subjects taking placebo or LX2761 in a multiple ascending dose study.
as §1, §2, §3
(§4) Reporting of TEAEs of diarrhea was not based on subject self-reporting. Given the mechanism of action of LX2761, osmotic diarrhea was expected to occur in all subjects receiving LX2761 based on either stool form or daily frequency. […] The study stopping rules defined gradation of diarrhea as follows: diarrhea of moderate intensity was defined as an increase of 4 to 5 stools/day over the normal pre-study count with moderate cramping that limits usual daily activity or may require simple therapeutic intervention; diarrhea of severe intensity was defined as an increase of 6 to 8 stools/day over the normal pre-study count with severe cramping or incontinence that prohibits usual daily activities or requires systemic drug therapy or other therapeutic intervention.

The target of another series is T1, SGLT1 transporter (Homo sapiens, UniProt P13866).
T1 construct: from tissue; host or cells: intestine of human subjects with T2DM (in vivo clinical study)
T1 sequence (P13866 1-664): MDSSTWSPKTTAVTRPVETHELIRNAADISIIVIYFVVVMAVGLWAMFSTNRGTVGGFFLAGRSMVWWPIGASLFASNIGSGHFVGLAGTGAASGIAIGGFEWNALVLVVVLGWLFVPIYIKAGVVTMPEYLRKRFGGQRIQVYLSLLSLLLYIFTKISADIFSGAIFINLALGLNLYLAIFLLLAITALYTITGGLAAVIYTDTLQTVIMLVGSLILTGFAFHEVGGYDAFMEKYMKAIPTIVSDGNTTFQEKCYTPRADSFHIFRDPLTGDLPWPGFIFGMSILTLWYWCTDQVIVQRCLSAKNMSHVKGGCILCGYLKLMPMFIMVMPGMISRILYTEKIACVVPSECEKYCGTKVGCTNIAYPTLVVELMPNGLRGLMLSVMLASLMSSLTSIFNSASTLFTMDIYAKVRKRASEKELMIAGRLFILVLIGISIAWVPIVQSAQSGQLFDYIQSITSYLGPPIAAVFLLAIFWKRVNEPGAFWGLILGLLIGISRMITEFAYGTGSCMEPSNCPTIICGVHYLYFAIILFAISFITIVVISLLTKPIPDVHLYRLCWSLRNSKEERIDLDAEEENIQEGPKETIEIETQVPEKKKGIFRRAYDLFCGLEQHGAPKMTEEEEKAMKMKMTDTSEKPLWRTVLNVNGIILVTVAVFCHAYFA
The series is described as follows: Phase 1 multiple ascending dose clinical study: pharmacodynamics. The format is in vivo. The procedure: A phase 1 multiple ascending dose (MAD) clinical study of LX2761 in otherwise healthy subjects with type 2 diabetes (T2DM) was conducted, following an earlier, single ascending dose study of the compound's safety and tolerability. This study evaluated the safety and tolerability of orally administered LX2761 given qd (i.e., once daily) or bid (i.e., twice daily) for eight days, over a range of ascending multiple dose levels in subjects with T2DM. As secondary objectives, the study evaluated the PD and PK of LX2761. […] Subjects taking LX2761 were grouped into five cohorts: Cohort A=LX2761 dosed 0.4 mg qd for 4 days followed by LX2761 dosed 0.6 mg qd for 4 days; Cohort A2=LX2761 dosed 0.2 mg bid for 8 days; Cohort B=LX2761 dosed 0.6 mg qd for 4 days followed by LX2761 dosed 0.8 mg qd for 4 days; Cohort C=LX2761 dosed 0.6 mg qd for 4 days followed by LX2761 dosed 1.0 mg qd for 4 days; Cohort C1=LX2761 dosed 0.4 mg bid for 8 days.

Series [3] relates to mice with STZ-induced diabetes. As to the kind of experiment: Effect of LX2761 on glycemic control and cecal pH in mice with STZ-induced diabetes. The class given is in vivo. The settings on record: adult male mice with well-established diabetes, single daily doses 1.5 or 3 mg/kg by oral gavage. The method, then: FIGS. 1A-1F present data showing the effect of LX2761 on glycemic control in mice with STZ-induced diabetes. […] Glucose excursions among groups were compared as glucose AUC0-120 minutes values. […] On day 49, the final study day, samples were obtained to measure FIG. 1C fasting blood glucose; FIG. 1D plasma tGLP-1; and FIG. 1E cecal glucose, reported as the total amount of glucose recovered.
This study evaluated the effect of orally administered LX2761 on glycemic control in preclinical models.
Mice and Rats. All studies were performed at Lexicon Pharmaceuticals, Inc., in strict accordance with the recommendations in the Guide for the Care and Use of Laboratory Animals of the National institutes of Health. The protocols for all studies were approved by the Lexicon Institutional Animal Care and Use Committee (OLAW Assurance Number A4152-01; AAALAC International Accreditation Number 001025). General methods for mouse and rat care have been described elsewhere. […] For all in vivo studies, mice and rats were fed HGD because glucose must be a major source of dietary calories if the effects of SGLT1 inhibition on glucose homeostasis are to be evaluated. […]
Glucose-Containing Meal Challenge. […] Vehicle or LX2761 was administered by oral gavage at 8:00 AM once daily for 4 consecutive days; body weight and food consumption were measured daily. […]

The conditions of series [4]: rodents and humans; cited from earlier work.
Series [5] concerns subjects with type 2 diabetes (T2DM). The series is described as follows: Phase 1 multiple ascending dose clinical study: safety and tolerability. The format is in vivo, human. The procedure:
as §1, §2, §3, §4

The mark [6] stands for this setting: T2DM subjects, oral qd or bid for eight days.

A value given as a limit tells only on which side of the number the result lay.

This is an account of results in US20250170157A1, “METHODS AND COMPOSITIONS FOR THE TREATMENT OF HEPATIC ENCEPHALOPATHY” (LEXICON PHARMACEUTICALS, INC., priority 2023, published 2025).

For the molecule `CS[C@H]1O[C@@H](c2ccc(C)c(Cc3ccc(CCCC(=O)NC(C)(C)C(=O)NCCN(C)C)cc3)c2)[C@H](O)[C@@H](O)[C@@H]1O` [LX2761, N-(1-((2-(dimethylamino)ethyl)-amino)-2-methyl-1-oxopropan-2-yl)-4-(4-(2-methyl-5-((2S,3R,4R,5S,6R)-3,4,5-trihydroxy-6-(methylthio)tetrahydro-2H-pyran-2-yl)benzyl)phenyl)butanamide], the “concentrations after the first dose (exposure)” value in series [1] (after the first dose) is “mostly BLQ”. The “increase in exposure (AUC and Cmax)” value in series [1] (ascending dose levels, moderate to high variability) is reported as “generally dose-related”. In addition, the absorption entry in series [1] (oral solution) is reported as “rapid absorption”. Further, the “subjects with BMs graded as BSF Scale Type 6 or 7” value in series [2] (all LX2761 cohorts but Cohort B, on at least one day through Day 8) is reported as not below 50%. In addition, the “increase in mean stool frequency per day from Baseline” value in series [2] (all LX2761 cohorts, on at least one day through Day 8) was more than 0.5 BM. Besides, the “frequency of subjects with 2 or 3 BMs graded as BSF Scale Type 6 or 7 on a single day, versus placebo-treated subjects” value in series [2] (all LX2761 cohorts, through Day 8) is on record as “higher”. Besides, in series [2] (human, in vivo), the “change in BMs meeting study criteria of moderate or severe diarrhea” value was “No change in BMs meeting these criteria of moderate or severe diarrhea was reported”. Further, on SGLT1 transporter (setting [6]), the “peptide YY (PYY) after dosing” value is “increases” and the “total glucagon-like peptide 1 (GLP-1) after dosing” value was “increases”. In addition, the “least squares (LS) mean UGE0-24 versus Baseline” value on SGLT1 transporter (all LX2761 cohorts, at some time points) is reported as “decreased from Baseline”. Further, on SGLT1 transporter (any LX2761 cohort), the “difference from placebo in change from Baseline in postprandial glucose (PPG) concentration AUC0-3” value was “No statistically significant differences from placebo” and the “difference from placebo in change from Baseline in urinary glucose excretion from 0 to 24 hours (UGE0-24)” value is on record as “No statistically significant differences from placebo”. Besides, on SGLT1 transporter (each LX2761 cohort except Cohort A2, at most assessment time points), the “PPG concentration AUC0-3 versus Baseline” value is listed as “reduced from Baseline”. For the same molecule, the glycemic control entry in series [3] (FIG. 1) is “improved glycemic control”. For the same molecule, the “cecal pH” value in series [3] (FIG. 1F) is reported as “reduced cecal pH”. Also, in series [4], the systemic exposure entry is “very low systemic exposure”. Besides, the “changes in clinical laboratory evaluations, vital signs, physical examination findings, or ECG parameters” value in series [5] (setting [6]) is reported as “No clinically significant changes”. Also, the “intensity of reported TEAEs” value in series [5] (all reported TEAEs) was “mild or moderate”. In addition, the “severe cramping or other adverse effects associated with existing HE agents such as lactulose” value in series [5] (human clinical trial, low doses) is “generally not attended by severe cramping or other adverse effects”. Further, the “severe TEAEs, SAEs, deaths, or discontinuations due to TEAEs” value in series [5] (human, in vivo) was “No severe TEAEs, SAEs (serious adverse events), deaths, or discontinuations due to TEAEs occurred”. Besides, the “most frequently reported TEAEs” value in series [5] (mainly nausea, vomiting, and abdominal pain) was “gastrointestinal (GI) events”. In series [5] (of 25 TEAEs, reported by 6 subjects treated with LX2761), the “number of TEAEs assessed as moderate in intensity” value was determined as 9 TEAEs.
